{"source": "patent US4617189A", "about": "“Use of selenium-containing compounds for negating the toxic effects of platinum compounds used in chemotherapy, and a novel selenium-containing platinum compound and use thereof as an anti-cancer medicine” (priority 1985, dated 1986)", "key": {"[1]": {"test_system": "nephrotoxic effects of Cisplatin", "conditions": "750 mg/kg intraperitoneally or 100 mg/kg intravenously; cited from earlier work"}, "[2]": {"test_system": "Cisplatin induced nephrotoxicity", "assay": "Platinum toxicity negating effect: blood urea nitrogen (BUN) determination in BDF1 mice given Cisplatin", "type": "in vivo, mouse (male BDF1)", "conditions": "for BUN (≥30) on the fourth day / BUN (≥30) on the eleventh day: mice with BUN ≥30 / mice", "protocol": "BUN of the mice which have been administered a platinum complex increases due to the platinum poisoning in the kidney. […] The method of negating platinum toxicity of the present invention will be illustrated in more detail by way of Examples later.\nSodium selenite was administered to the peritoneal cavities of the mice at a dosage of 6.3 mg/kg. […] BUN of the mice was determined on the fourth day from the date of the administration. […] BUN of these control groups was also determined.\nBUN of the mice was dertermined on the fourth day from the date of administration and on the eleventh day from the date of the administration. […] BUN of these control groups was also determined.\nOur studies were carried out in BDF1 male mice weighing approximately 25 grams. All solutions were freshly were daily and given by the intraperitoneal route.\nThe BUN values were determined on the fourth day after the administration of cisplatinol."}, "[3]": {"test_system": "cadmium induced testicular damage", "conditions": "Kar and co-workers, 1969; cited from earlier work"}, "[4]": {"conditions": "Table 3, sodium selenite 1 mg/kg 2 hours before Cisplatin 14 mg/kg"}, "[5]": {"conditions": "Table 3, sodium selenite 2 mg/kg 2 hours before Cisplatin 14 mg/kg"}, "[6]": {"conditions": "Table 3, sodium selenite 4 mg/kg 2 hours before Cisplatin 14 mg/kg"}, "[7]": {"conditions": "Table 3, sodium selenite 6 mg/kg 2 hours before Cisplatin 14 mg/kg"}, "[8]": {"conditions": "Table 3, sodium selenite 8 mg/kg 2 hours before Cisplatin 14 mg/kg"}}}
{"smiles": "CCN(CC)C(=S)[S-].[Na+]", "note": "[sodium diethyldithiocarbamate]", "values": [{"measurement": "nephrotoxic effects of Cisplatin in female rats", "setting": "[1]", "result": "effectively inhibited"}]}
{"smiles": "O=[Se](O)O", "note": "[Sodium selenite]", "values": [{"measurement": "number of dead mice", "setting": "[2]; Table 1, fourth day, sodium selenite 6.3 mg/kg 2 hours before Cisplatin 14 mg/kg", "result": 2}, {"measurement": "BUN (≥30) on the fourth day", "setting": "[2]; Table 1, sodium selenite 6.3 mg/kg 1 hour after Cisplatin 14 mg/kg", "result": "5/5"}, {"measurement": "BUN (≥30) on the fourth day", "setting": "[2]; Table 1, sodium selenite 6.3 mg/kg 2 hours before Cisplatin 14 mg/kg", "result": "1/3"}, {"measurement": "BUN (≥30) on the fourth day", "setting": "[2]; Table 1, sodium selenite 6.3 mg/kg 4 hours before Cisplatin 14 mg/kg", "result": "4/5"}, {"measurement": "BUN (≥30) on the fourth day", "setting": "[2]; Table 1, sodium selenite 6.3 mg/kg i.p. alone, no Cisplatin", "result": "0/5"}, {"measurement": "BUN (≥30) on the fourth day", "setting": "[2]; Table 1, sodium selenite 6.3 mg/kg simultaneously with Cisplatin 14 mg/kg", "result": "2/5"}, {"measurement": "number of dead mice", "setting": "[2]; Table 2, fourth day, sodium selenite 6.3 mg/kg 3 hours before Cisplatin 14 mg/kg", "result": 1}, {"measurement": "number of dead mice", "setting": "[2]; Table 2, fourth day, sodium selenite 6.3 mg/kg 4 hours before Cisplatin 14 mg/kg", "result": 1}, {"measurement": "number of dead mice", "setting": "[2]; Table 2, fourth day, sodium selenite 6.3 mg/kg 6 hours before Cisplatin 14 mg/kg", "result": 1}, {"measurement": "number of dead mice", "setting": "[2]; Table 2, fourth day, sodium selenite 6.3 mg/kg simultaneously with Cisplatin 14 mg/kg", "result": 1}, {"measurement": "BUN (≥30) on the fourth day", "setting": "[2]; Table 2, sodium selenite 6.3 mg/kg 1 hour before Cisplatin 14 mg/kg", "result": "3/5"}, {"measurement": "BUN (≥30) on the fourth day", "setting": "[2]; Table 2, sodium selenite 6.3 mg/kg 2 hours before Cisplatin 14 mg/kg", "result": "1/5"}, {"measurement": "BUN (≥30) on the fourth day", "setting": "[2]; Table 2, sodium selenite 6.3 mg/kg 3 hours before Cisplatin 14 mg/kg", "result": "1/4"}, {"measurement": "BUN (≥30) on the fourth day", "setting": "[2]; Table 2, sodium selenite 6.3 mg/kg 4 hours before Cisplatin 14 mg/kg", "result": "2/4"}, {"measurement": "BUN (≥30) on the fourth day", "setting": "[2]; Table 2, sodium selenite 6.3 mg/kg 6 hours before Cisplatin 14 mg/kg", "result": "2/4"}, {"measurement": "BUN (≥30) on the fourth day", "setting": "[2]; Table 2, sodium selenite 6.3 mg/kg simultaneously with Cisplatin 14 mg/kg", "result": "2/4"}, {"measurement": "number of dead mice", "setting": "[2]; Table 3, eleventh day, sodium selenite 2 mg/kg 2 hours before Cisplatin 14 mg/kg", "result": 1}, {"measurement": "number of dead mice", "setting": "[2]; Table 3, eleventh day, sodium selenite 4 mg/kg 2 hours before Cisplatin 14 mg/kg", "result": 2}, {"measurement": "number of dead mice", "setting": "[2]; Table 3, eleventh day, sodium selenite 6 mg/kg 2 hours before Cisplatin 14 mg/kg", "result": 1}, {"measurement": "number of dead mice", "setting": "[2]; Table 3, eleventh day, sodium selenite 8 mg/kg 2 hours before Cisplatin 14 mg/kg", "result": 1}, {"measurement": "number of dead mice", "setting": "[2]; Table 3, fourth day, sodium selenite 4 mg/kg 2 hours before Cisplatin 14 mg/kg", "result": 1}, {"measurement": "number of dead mice", "setting": "[2]; Table 3, fourth day, sodium selenite 8 mg/kg 2 hours before Cisplatin 14 mg/kg", "result": 1}, {"measurement": "BUN (≥30) on the eleventh day", "setting": "[2]; [4]", "result": "1/5"}, {"measurement": "BUN (≥30) on the fourth day", "setting": "[2]; [4]", "result": "3/5"}, {"measurement": "BUN (≥30) on the eleventh day", "setting": "[2]; [5]", "result": "0/4"}, {"measurement": "BUN (≥30) on the fourth day", "setting": "[2]; [5]", "result": "1/5"}, {"measurement": "BUN (≥30) on the eleventh day", "setting": "[2]; [6]", "result": "0/3"}, {"measurement": "BUN (≥30) on the fourth day", "setting": "[2]; [6]", "result": "1/4"}, {"measurement": "BUN (≥30) on the eleventh day", "setting": "[2]; [7]", "result": "0/4"}, {"measurement": "BUN (≥30) on the fourth day", "setting": "[2]; [7]", "result": "1/5"}, {"measurement": "BUN (≥30) on the eleventh day", "setting": "[2]; [8]", "result": "0/4"}, {"measurement": "BUN (≥30) on the fourth day", "setting": "[2]; [8]", "result": "1/4"}]}
{"smiles": "[Se]", "note": "[selenium]", "values": [{"measurement": "cadmium induced testicular damage", "setting": "[3]", "result": "prevents"}]}
